Laboratory results: paper PMC11502443 (Frontiers in Pharmacology, 2024)
Changes are numbered by the printed parent chain.

Tests used:
[1] = target: T1, human WT GIP receptor (E354) (Homo sapiens, UniProt P48546); test: IP1 accumulation (IP-one Gq kit), WT GIP receptor; type: cell-based
T1 construct: host or cells: Cos7 cells, transient transfection with PEI, pcDNA3.1+
T1 sequence (P48546 22-466): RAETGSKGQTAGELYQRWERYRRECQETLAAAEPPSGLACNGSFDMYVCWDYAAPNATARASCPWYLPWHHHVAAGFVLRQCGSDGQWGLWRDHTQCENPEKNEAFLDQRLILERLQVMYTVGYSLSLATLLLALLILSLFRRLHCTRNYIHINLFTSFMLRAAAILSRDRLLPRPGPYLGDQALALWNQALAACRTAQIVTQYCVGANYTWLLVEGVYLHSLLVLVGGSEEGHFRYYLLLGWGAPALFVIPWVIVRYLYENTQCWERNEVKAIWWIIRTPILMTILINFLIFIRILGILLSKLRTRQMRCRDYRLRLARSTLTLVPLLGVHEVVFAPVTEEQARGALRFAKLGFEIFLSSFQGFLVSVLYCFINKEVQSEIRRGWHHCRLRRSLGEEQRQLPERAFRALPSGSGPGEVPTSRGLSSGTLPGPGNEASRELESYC
Description: (§1) Using a PCR thermocycler (Applied Biosystems PCR system 9700, ThermoFisher, CA, United States), the DNA was initially denatured at 95°C for 2 min, followed by 25 cycles of 98°C for 30 s, 66°C for 15 s and 72°C for 3.5 min. Following the PCR reaction, 1 μL Dpn1 was added, and the DNA transformed into XL.10-gold Ultracompetent E. coli (Agilent Technologies, CA, United States). Plasmid DNA was purified using the NucleoBond Xtra Maxi kit (Macherey-Nagel, Germany) and sequenced prior to use (Centre for Genomics, Proteomics and Metabolomics, University of Auckland).
Cos7 cells were cultured and transfected as previously described ([Tasma et al., 2022]; [Bower et al., 2018]). […]
The IP-one Gq assay kit (Cisbio, PerkinElmer) was used to quantify accumulated myo-inositol-1-phosphate (IP1), a by-product of IP3 produced after receptor-mediated Gαq activation in Cos7 cells, as previously described ([Tasma et al., 2022]; [Bower et al., 2018]). […] Samples were processed as previously described and read using an Envision plate reader (PerkinElmer). IP1 concentrations were determined from a standard curve generated in duplicate.
(§2) All data were plotted and analyzed using GraphPad Prism 8.0 (GraphPad Software Inc.). […]

[2] = target: T1, human WT GIP receptor (E354); test: AKT phosphorylation (AlphaLISA pAKT Ser473), WT GIP receptor; type: cell-based; details: for Emax: read-out: Emax pAKT
Description: as §1
(§3) Cos7 cells were cultured and transfected as previously described ([Tasma et al., 2022]; [Bower et al., 2018]). Briefly, Cos7 cells were cultured in DMEM supplemented with 8% fetal bovine serum (FBS) in a 37°C humidified incubator with 5% CO2 and seeded into 96-well SpectraPlates at a density of 20,000 cells per well 24 h prior to transfection. […] All plasmid sequences were verified prior to use.
(§4) Phosphorylated (p) Protein Kinase B (AKT), extracellular signal-regulated kinase 1/2 (ERK1/2) and CREB were detected using the AlphaLISA SureFire Ultra pAKT (Ser473), AlphaLISA SureFire Ultra pERK1/2 (Thr202/Tyr204) or AlphaLISA SureFire Ultra pCREB (Ser133) assay kit (PerkinElmer) as per the manufacturer’s protocol. Briefly, Cos7 cells were serum-starved in assay media (DMEM +0.1% BSA) for 4 h at 37°C with 5% CO2 prior to peptide stimulation. Peptides were serially diluted in assay media, and cells were incubated with assay media alone or each concentration of peptide for 15 min. FBS (50%) in pERK1/2 and pAKT or 50 μM forskolin in pCREB assays were used as positive controls. Media was then aspirated, and the cells were lysed in 40 μL of the kit lysis buffer, followed by shaking for 10–15 min at room temperature. Ten microliters of cell lysate was transferred to a white 384-well OptiPlate. […] Plates were read on an Envision plate reader (PerkinElmer). […]
as §2

[3] = target: T2, human GIP receptor E354Q variant (Homo sapiens, UniProt P48546, E354Q); test: AKT phosphorylation (AlphaLISA pAKT Ser473), E354Q GIP receptor; type: cell-based; details: for Emax: read-out: Emax pAKT
T2 construct: expressed in transfected cells; host or cells: Cos7 cells, transient transfection with PEI, pcDNA3.1+; mutant plasmid made in house from the purchased WT construct
T2 sequence (P48546 22-466 E354Q): T1 sequence (P48546 22-466) with E333Q
Description: as §1, §3, §4, §2

[4] = target: T1, human WT GIP receptor (E354); test: ERK1/2 phosphorylation (AlphaLISA pERK1/2 Thr202/Tyr204), WT GIP receptor; type: cell-based; details: read-out: Emax pERK1/2
Description: as §1
(§5) Cos7 cells were cultured and transfected as previously described ([Tasma et al., 2022]; [Bower et al., 2018]). Briefly, Cos7 cells were cultured in DMEM supplemented with 8% fetal bovine serum (FBS) in a 37°C humidified incubator with 5% CO2 and seeded into 96-well SpectraPlates at a density of 20,000 cells per well 24 h prior to transfection. […]
(§6) Phosphorylated (p) Protein Kinase B (AKT), extracellular signal-regulated kinase 1/2 (ERK1/2) and CREB were detected using the AlphaLISA SureFire Ultra pAKT (Ser473), AlphaLISA SureFire Ultra pERK1/2 (Thr202/Tyr204) or AlphaLISA SureFire Ultra pCREB (Ser133) assay kit (PerkinElmer) as per the manufacturer’s protocol. […] Plates were read on an Envision plate reader (PerkinElmer). […]
as §2

[5] = target: T2, human GIP receptor E354Q variant; test: ERK1/2 phosphorylation (AlphaLISA pERK1/2 Thr202/Tyr204), E354Q GIP receptor; type: cell-based; details: read-out: Emax pERK1/2
Description: as §1, §5, §6, §2

[6] = target: T1, human WT GIP receptor (E354); test: CREB phosphorylation (AlphaLISA pCREB Ser133), WT GIP receptor; type: cell-based; details: for Emax: read-out: Emax pCREB
Description: as §1, §3, §4, §2

[7] = target: T2, human GIP receptor E354Q variant; test: CREB phosphorylation (AlphaLISA pCREB Ser133), E354Q GIP receptor; type: cell-based; details: read-out: Emax pCREB
Description: as §1, §5, §6, §2

albumin = details: cited from earlier work
Excerpt: Understanding the signalling of GIP receptors is essential to elucidating their physiological effects and exploiting this receptor as a drug target. The GIP receptor is often reported to couple to Gαs alone ([Oduori et al., 2020b]). […] This indicates potential coupling to Gαq, as IP1 is a stable by-product of IP3 ([Garbison et al., 2004]). The induction of cAMP accumulation by the endogenous GIP agonists was similar to previous studies ([Hansen et al., 2016]; [Yuliantie et al., 2021]). Tirzep ...

## CC[C@H](C)[C@H](NC(=O)[C@H](CO)NC(=O)[C@H](Cc1ccc(O)cc1)NC(=O)[C@H](CC(=O)O)NC(=O)[C@H](CO)NC(=O)[C@@H](NC(=O)[C@H](Cc1ccccc1)NC(=O)[C@@H](NC(=O)CNC(=O)[C@H](CCC(=O)O)NC(=O)[C@H](C)NC(=O)[C@@H](N)Cc1ccc(O)cc1)[C@@H](C)O)[C@@H](C)CC)C(=O)N[C@@H](C)C(=O)N[C@@H](CCSC)C(=O)N[C@@H](CC(=O)O)C(=O)N[C@@H](CCCCN)C(=O)N[C@H](C(=O)N[C@@H](Cc1c[nH]cn1)C(=O)N[C@@H](CCC(N)=O)C(=O)N[C@@H](CCC(N)=O)C(=O)N[C@@H](CC(=O)O)C(=O)N[C@@H](Cc1ccccc1)C(=O)N[C@H](C(=O)N[C@@H](CC(N)=O)C(=O)N[C@@H](Cc1c[nH]c2ccccc12)C(=O)N[C@@H](CC(C)C)C(=O)N[C@@H](CC(C)C)C(=O)N[C@@H](C)C(=O)N[C@@H](CCC(N)=O)C(=O)N[C@@H](CCCCN)C(N)=O)C(C)C)[C@@H](C)CC [GIP(1-30)NH2]
[1]; WT, Cos7, 90 min, 37°C, DMEM + 0.1% BSA + 1% 10 mM LiCl, mean ± s.e.m., n = 5, read-out: pEC50 IP1 (converted)
  EC50: 1.62 nM
[2]; WT, Cos7, 15 min, DMEM + 0.1% BSA, mean ± s.e.m., n = 3
  EC50: 1.48 nM
[2]
  Emax: 97.1 ± 4.56%
[3]; E354Q, Cos7, 15 min, DMEM + 0.1% BSA, mean ± s.e.m., n = 3
  EC50: 0.813 nM
[3]
  Emax: 50.9 ± 1.72%
[4]
  Emax: 117 ± 3.91%
[5]
  Emax: 73.9 ± 9.75%
[6]; WT, Cos7, 15 min, DMEM + 0.1% BSA, mean ± s.e.m., n = 3, read-out: pEC50 pCREB (converted)
  EC50: 0.0631 nM
[6]
  Emax: 117 ± 8.75%
[7]
  Emax: 70.7 ± 32.9%

## CC[C@H](C)[C@H](NC(=O)[C@H](CC(C)C)NC(=O)[C@H](Cc1c[nH]c2ccccc12)NC(=O)[C@H](CCC(N)=O)NC(=O)[C@@H](NC(=O)[C@H](Cc1ccccc1)NC(=O)[C@H](C)NC(=O)[C@H](CCCCNC(=O)COCCOCCNC(=O)COCCOCCNC(=O)CC[C@H](NC(=O)CCCCCCCCCCCCCCCCCCC(=O)O)C(=O)O)NC(=O)[C@H](CCC(N)=O)NC(=O)[C@H](C)NC(=O)[C@@H](NC(=O)[C@H](CCCCN)NC(=O)[C@H](CC(=O)O)NC(=O)[C@H](CC(C)C)NC(=O)C(C)(C)NC(=O)[C@@H](NC(=O)[C@H](CO)NC(=O)[C@H](Cc1ccc(O)cc1)NC(=O)[C@H](CC(=O)O)NC(=O)[C@H](CO)NC(=O)[C@@H](NC(=O)[C@H](Cc1ccccc1)NC(=O)[C@@H](NC(=O)CNC(=O)[C@H](CCC(=O)O)NC(=O)C(C)(C)NC(=O)[C@@H](N)Cc1ccc(O)cc1)[C@@H](C)O)[C@@H](C)O)[C@@H](C)CC)[C@@H](C)CC)C(C)C)C(=O)N[C@@H](C)C(=O)NCC(=O)NCC(=O)N1CCC[C@H]1C(=O)N[C@@H](CO)C(=O)N[C@@H](CO)C(=O)NCC(=O)N[C@@H](C)C(=O)N1CCC[C@H]1C(=O)N1CCC[C@H]1C(=O)N1CCC[C@H]1C(=O)N[C@@H](CO)C(N)=O [Tirzepatide]
[1]; read-out: Emax IP1, % of maximal response
  Emax: 54.9%
[2]
  Emax: 87.7 ± 2.6%
[3]
  Emax: 51.9 ± 8.95%
[5]
  Emax: 80.2 ± 17.3%
[6]
  Emax: 91.5 ± 10.9%
[7]
  Emax: 59.4 ± 34.8%
albumin
  albumin binding: binds to albumin
